Measured values published in ChEMBL document CHEMBL1201862, “PubChem BioAssay data set” (2004).
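Five concentrations, 48 hours, 96-well plates. Here, GI50 denotes the concentration required for 50% inhibition of growth.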 Activity calls are given as the source filed them. Rule as the data show it: active = GI50 up to about 1.1 µM and inactive = higher.

Experiments:
Assay in all cases: inhibition of tumour cell growth, NCI panel, 48 h
[1] = system: A549
[2] = system: CCRF-CEM
[3] = system: HCT-15
[4] = system: HOP-92
[5] = system: IGROV-1
[6] = system: K562
[7] = system: KM-20L2
[8] = system: NCI-H522
[9] = system: OVCAR-8
[10] = system: SF-268
[11] = system: SK-MEL-2
[12] = system: SK-MEL-5
[13] = system: SW-620
[14] = system: TK-10
[15] = system: MOLT-4
[16] = system: SN12C

Measured: GI50

CNS(=O)(=O)NNS(=O)(=O)c1ccc(Br)cc1
inactive: [1] > 100 µM | [2] > 100 µM | [4] 32.1 µM | [5] > 100 µM | [6] > 100 µM | [7] > 100 µM | [8] > 100 µM | [9] > 100 µM | [10] > 100 µM | [11] > 100 µM | [12] > 100 µM | [13] > 100 µM | [14] > 100 µM
> 100 µM: [3]

COc1cc2c(cc1OC)C(C(=O)c1cccc(OC)c1OC)C(=O)N(C)CC2 (stereo unspecified)
> 100 µM: [3]
inactive: [1] > 100 µM | [2] > 100 µM | [4] 65.5 µM | [5] > 100 µM | [6] > 100 µM | [7] > 100 µM | [15] > 100 µM | [8] > 100 µM | [9] > 100 µM | [10] > 100 µM | [11] > 100 µM | [12] > 100 µM | [16] > 100 µM | [13] > 100 µM | [14] > 100 µM

O=C(NC12CC3CCC1CC(C3)C2)[C@@H]1CCCN1C(=O)OCc1ccccc1 (stereo partly specified)
inactive: [1] 50.4 µM | [2] 36.5 µM | [4] 18.6 µM | [5] > 100 µM | [6] 33.7 µM | [7] 46.9 µM | [15] 30.1 µM | [8] 54.7 µM | [9] 50.5 µM | [10] 94.8 µM | [11] 40.6 µM | [16] 46.5 µM | [13] 77.3 µM | [14] 85.5 µM
44.2 µM: [3]

COC(=O)C12C3C4C5C3(C#N)C1C5(C(=O)OC)C42C(=O)N(C(C)C)C(C)C (stereo unspecified)
> 42.2 µM: [3]
inactive: [1] > 100 µM | [2] > 46 µM | [4] > 100 µM | [5] > 100 µM | [6] > 49.4 µM | [7] > 100 µM | [15] 66.2 µM | [8] > 33.4 µM | [9] > 63 µM | [10] > 100 µM | [11] > 100 µM | [12] > 100 µM | [16] > 100 µM | [13] > 26.7 µM | [14] > 100 µM

CSc1nc(NC2OC(COC(C)=O)C(OC(C)=O)C(OC(C)=O)C2OC(C)=O)c(-c2csc(N)n2)c(=O)n1C (stereo unspecified)
inactive: [1] 43.4 µM | [2] > 100 µM | [4] 23.5 µM | [5] 34.1 µM | [6] > 100 µM | [7] > 100 µM | [15] > 100 µM | [8] 56.2 µM | [9] 26.1 µM | [10] 22.5 µM | [11] 28.6 µM | [12] 57.5 µM | [16] 49.5 µM | [13] > 100 µM | [14] > 100 µM
97.1 µM: [3]

CC(O)C(N/C=C1/N=C(c2ccccc2)OC1=O)C(=O)O (stereo unspecified)
10 µM: [3]
inactive: [1] > 100 µM | [2] > 100 µM | [4] > 100 µM | [5] > 100 µM | [6] > 100 µM | [7] > 100 µM | [8] > 100 µM | [9] > 100 µM | [10] > 100 µM | [11] > 100 µM | [12] > 100 µM | [13] > 100 µM | [14] > 100 µM

ONc1ncnc2[nH]cnc12
> 100 µM: [3]
inactive: [1] > 100 µM | [2] > 100 µM | [4] > 100 µM | [5] > 100 µM | [6] 64.4 µM | [7] > 100 µM | [15] > 100 µM | [8] > 100 µM | [9] > 100 µM | [10] > 100 µM | [11] > 100 µM | [12] > 100 µM | [13] > 100 µM | [14] > 100 µM
